Data: ChEMBL document CHEMBL6114967, “Design and synthesis of novel sulfur-substituted triptolide with the ability to induce autophagy through inhibition of SRSF1 expression” (Eur J Med Chem, 2025)
Active and inactive are the calls of the source. No cut-off for these calls is given here.

What was measured:
[1] = system: HGC-27; assay: Induction of apoptosis in human HGC-27 cells assessed as early apoptotic cells at 0.1 uM incubated for 48 hrs by annexin V-FITC and PI staining based flow cytometry analysis (reference value: 3.13%); format: functional
[2] = system: A549; assay: Antiproliferative activity against human A549 cells assessed as inhibition of cell proliferation incubated for 72 hrs by MTT assay; format: functional, cell-based; conditions: A549, 72 h
[3] = system: AGS; assay: Antiproliferative activity against human AGS cells assessed as inhibition of cell proliferation incubated for 72 hrs by MTT assay; format: functional, cell-based
[4] = system: HCT-116; assay: Antiproliferative activity against human HCT-116 cells assessed as inhibition of cell proliferation incubated for 72 hrs by MTT assay; format: functional, cell-based; conditions: HCT-116, 72 h
[5] = system: AGS; assay: Induction of apoptosis in human AGS cells assessed as early apoptotic cells at 0.1 uM incubated for 48 hrs by annexin V-FITC and PI staining based flow cytometry analysis (reference value: 4.44%); format: functional
[6] = Toxicity in male ICR mouse assessed as animal death at 2 mg/kg, ip measured after 4 days; format: organism-based; conditions: in vivo, 96 h, time 4 day
[7] = system: HepG2; assay: Antiproliferative activity against human HepG2 cells assessed as inhibition of cell proliferation incubated for 72 hrs by MTT assay; format: functional, cell-based; conditions: HepG2, 72 h
[8] = Selectivity index, ratio of IC50 for antiproliferative activity against human LO2 cells to IC50 for antiproliferative activity against human HGC-27 cells; format: toxicity, cell-based; conditions: LO2 cells and HGC-27 cells, read-out: Ratio IC50
[9] = system: AGS; assay: Induction of apoptosis in human AGS cells assessed as late apoptotic cells at 0.1 uM incubated for 48 hrs by annexin V-FITC and PI staining based flow cytometry analysis (reference value: 3.15%); format: functional
[10] = system: HGC-27; assay: Antitumor activity against human HGC-27 cells xenografted in male BALB/c nude mouse assessed as tumor growth inhibition at 0.5 mg/kg, ip administered every day for 15 days relative to control; format: functional; conditions: HGC-27, 360 h, time 15 day, read-out: TGI
[11] = system: AGS; assay: Induction of apoptosis in human AGS cells assessed as necrotic cells at 0.1 uM incubated for 48 hrs by annexin V-FITC and PI staining based flow cytometry analysis (reference value: 0.44%); format: functional
[12] = Acute toxicity in male ICR mouse assessed as appearance of unclear cell boundaries at 2 mg/kg, ip measured after 7 days by H and E staining based light microscopic analysis; format: organism-based; conditions: in vivo, 168 h, time 7 day
[13] = system: HGC-27; assay: Induction of apoptosis in human HGC-27 cells assessed as viable cells at 0.1 uM incubated for 48 hrs by annexin V-FITC and PI staining based flow cytometry analysis (reference value: 91.8%); format: functional; conditions: read-out: Activity
[14] = Selectivity index, ratio of IC50 for antiproliferative activity against human LO2 cells to IC50 for antiproliferative activity against human AGS cells; format: cell-based; conditions: LO2 cells and AGS cells, read-out: Ratio IC50
[15] = Acute toxicity in male ICR mouse assessed as appearance of empty cytoplasm at 2 mg/kg, ip measured after 7 days by H and E staining based light microscopic analysis; format: organism-based; conditions: in vivo, 168 h, time 7 day
[16] = system: HGC-27; assay: Induction of apoptosis in human HGC-27 cells assessed as necrotic cells at 0.1 uM incubated for 48 hrs by annexin V-FITC and PI staining based flow cytometry analysis (reference value: 0.062%); format: functional
[17] = Acute toxicity in male ICR mouse assessed as abnormal hepatocyte morphology at 2 mg/kg, ip measured after 7 days by H and E staining based light microscopic analysis; format: organism-based; conditions: in vivo, 168 h, time 7 day
[18] = system: MCF7; assay: Antiproliferative activity against human MCF7 cells assessed as inhibition of cell proliferation incubated for 72 hrs by MTT assay; format: functional, cell-based; conditions: MCF7, 72 h
[19] = system: HGC-27; assay: Induction of autophagy in human HGC-27 cells assessed as increase in LC3 II/LC3 I ratio in tumor tissue at 25 to 100 mg/kg, ip administered daily; format: functional, organism-based; conditions: dose 25-100 mg/kg
[20] = system: HGC-27; assay: Antiproliferative activity against human HGC-27 cells assessed as inhibition of cell proliferation incubated for 72 hrs by MTT assay; format: functional, cell-based; conditions: HGC-27, 72 h
[21] = Acute toxicity in male ICR mouse assessed as enlarged hepatocyte volume at 2 mg/kg, ip measured after 7 days by H and E staining based light microscopic analysis; format: organism-based; conditions: in vivo, 168 h, time 7 day
[22] = system: B16-F10; assay: Antiproliferative activity against mouse B16-F10 cells assessed as inhibition of cell proliferation incubated for 72 hrs by MTT assay; format: functional, cell-based; conditions: B16-F10, 72 h
[23] = system: U-251; assay: Antiproliferative activity against human U-251 cells assessed as inhibition of cell proliferation incubated for 72 hrs by MTT assay; format: functional, cell-based; conditions: U-251, 72 h
[24] = system: AGS; assay: Induction of apoptosis in human AGS cells assessed as viable cells at 0.1 uM incubated for 48 hrs by annexin V-FITC and PI staining based flow cytometry analysis (reference value: 92.0%); format: functional; conditions: read-out: Activity
[25] = Antiproliferative activity against human LO2 cells assessed as inhibition of cell proliferation incubated for 72 hrs by MTT assay; format: toxicity, cell-based, L02
[26] = Toxicity in male ICR mouse assessed as body weight loss at 2 mg/kg, ip measured after 4 days; format: organism-based; conditions: in vivo, 96 h, time 4 day
[27] = system: SGC-7901; assay: Antiproliferative activity against human SGC-7901 cells assessed as inhibition of cell proliferation incubated for 72 hrs by MTT assay; format: functional, cell-based; conditions: SGC-7901, 72 h
[28] = system: HGC-27; assay: Induction of apoptosis in human HGC-27 cells assessed as late apoptotic cells at 0.1 uM incubated for 48 hrs by annexin V-FITC and PI staining based flow cytometry analysis (reference value: 5.02%); format: functional
[29] = system: BGC-823; assay: Antiproliferative activity against human BGC-823 cells assessed as inhibition of cell proliferation incubated for 72 hrs by MTT assay; format: functional, cell-based; conditions: BGC-823, 72 h
[30] = Acute toxicity in male ICR mouse assessed as appearance of bright cytoplasm at 2 mg/kg, ip measured after 7 days by H and E staining based light microscopic analysis; format: organism-based; conditions: in vivo, 168 h, time 7 day

Row | SMILES | IC50 [2] | IC50 [3] | IC50 [4] | IC50 [7] | selectivity ratio [8] | selectivity ratio [14] | IC50 [18] | IC50 [20] | IC50 [22] | IC50 [23] | IC50 at 72 h [25] | IC50 [27] | IC50 [29] | also measured
1 | CC(C)[C@]12O[C@H]1[C@@H]1O[C@]13[C@]1(O[C@H]1C[C@H]1C4=C(CC[C@@]13C)C(=O)OC4)[C@@H]2O [TRIPTOLIDE] | 40 nM | 40 nM | 10 nM | 60 nM | 1.89 | 1.08 | 70 nM | 20 nM | 3 nM | 20 nM | 40 nM | 40 nM | 60 nM | Activity [1]: 34%; Activity [5]: 50.5%; Activity [6]: Toxic; Activity [9]: 37.9%; inhibition in vivo at 0.5 mg/kg [10]: 97.2%; Activity [11]: 1.65%; Activity [12]: Toxic; viability at 0.1 µM [13]: 48.5%; Activity [15]: Toxic; Activity [16]: 0.16%; Activity [17]: Toxic; Activity [19]: inactive; Activity [21]: Toxic; viability at 0.1 µM [24]: 10%; Activity [26]: Toxic; Activity [28]: 17.4%; Activity [30]: Toxic
2 | CC(C)[C@]12O[C@H]1[C@@H]1O[C@@]13[C@@]1(C)CCC4=C(COC4=O)[C@@H]1C[C@@H]1O[C@@]13C2=O [TRIPTONIDE] | 460 nM | 50 nM | 130 nM | 50 nM | – | – | 50 nM | 100 nM | 20 nM | 20 nM | – | 110 nM | 90 nM | –
3 | CC(C)[C@]12O[C@H]1[C@@H]1O[C@]13[C@]1(O[C@H]1C[C@H]1C4=C(CC[C@@]13C)C(=S)O[C@H]4O)[C@H]2O | > 10000 nM | > 10000 nM | > 10000 nM | > 10000 nM | – | – | > 10000 nM | > 10000 nM | > 10000 nM | > 10000 nM | – | > 10000 nM | > 10000 nM | –
4 | CC(C)[C@]12O[C@H]1[C@@H]1O[C@]13[C@]1(O[C@H]1C[C@H]1C4=C(CC[C@@]13C)C(=S)O[C@H]4O)[C@@H]2O | > 10000 nM | > 10000 nM | 5590 nM | > 10000 nM | – | – | > 10000 nM | > 10000 nM | > 10000 nM | > 10000 nM | – | > 10000 nM | > 10000 nM | –
5 | CC(C)[C@]12O[C@H]1[C@@H]1O[C@]13[C@]1(O[C@H]1C[C@H]1C4=C(CC[C@@]13C)C(=S)OC4)[C@H]2O | > 10000 nM | 2580 nM | 1340 nM | 1870 nM | 12.2 | 2.68 | 3040 nM | 700 nM | 1460 nM | 6320 nM | 6910 nM | 4830 nM | 3660 nM | –
6 | CC(C)[C@]12O[C@H]1[C@@H]1O[C@@]13[C@@]1(C)CCC4=C(COC4=S)[C@@H]1C[C@@H]1O[C@@]13C2=O | > 10000 nM | 1030 nM | 520 nM | 630 nM | 5.43 | 3.26 | 1790 nM | 620 nM | 1030 nM | 2430 nM | 3350 nM | 1880 nM | 1330 nM | –
7 | CC(C)[C@]12O[C@H]1[C@@H]1O[C@@]13[C@@]1(C)CCC4=C([C@H](O)OC4=S)[C@@H]1C[C@@H]1O[C@@]13C2=O | > 10000 nM | > 10000 nM | 8530 nM | > 10000 nM | – | – | > 10000 nM | > 10000 nM | > 10000 nM | > 10000 nM | – | > 10000 nM | > 10000 nM | –
